Assay results from the NIST ThermoML archive (doi:10.1016/j.jct.2015.08.010).

Assay: xn = mol fraction of the nth substance listed
Details: 100 kPa, Liquid; for viscosity: Falling or rolling sphere viscometry; for mass density: Vibrating tube method

C1CCC2=NCCC[NH+]2CC1.c1c[n-]cn1 [1,8-diazabicyclo[5.4.0]undec-7-enium imidazolide] + O
Details | mass density, 293.15 K [kg/m3] | mass density, 298.15 K [kg/m3] | mass density, 303.15 K [kg/m3] | mass density, 308.15 K [kg/m3] | mass density, 313.15 K [kg/m3] | viscosity, 293.15 K [mPa·s] | viscosity, 298.15 K [mPa·s] | viscosity, 303.15 K [mPa·s] | viscosity, 308.15 K [mPa·s] | viscosity, 313.15 K [mPa·s]
x1 = 0.0298 | 1026.99 | 1024.52 | 1021.91 | 1019.17 | 1016.33 | 2.845 | 2.428 | 2.096 | 1.835 | 1.614
x1 = 0.0698 | 1048.57 | 1045.19 | 1041.75 | 1038.24 | 1034.66 | 8.167 | 6.74 | 5.761 | 4.854 | 4.071
x1 = 0.0998 | 1057.33 | 1053.65 | 1050.01 | 1046.13 | 1042.33 | 14.13 | 11.17 | 9.019 | 7.406 | 6.217
x1 = 0.1875 | 1067.15 | 1063.22 | 1059.26 | 1055.28 | 1051.28 | 34.98 | 25.84 | 19.66 | 15.37 | 12.31
x1 = 0.2994 | 1067.1 | 1063.15 | 1059.2 | 1055.23 | 1051.26 | 60.57 | 42.65 | 30.99 | 23.32 | 18.12
x1 = 0.444 | 1063.55 | 1059.63 | 1055.71 | 1051.79 | 1047.79 | 72.41 | 51.28 | 37.8 | 28.37 | 21.76
x1 = 0.5989 | 1059.62 | 1055.73 | 1051.85 | 1047.97 | 1044.1 | 69.49 | 49.75 | 36.33 | 27.13 | 20.87
x1 = 0.7516 | 1056.72 | 1052.85 | 1048.97 | 1045.08 | 1041.21 | 63.94 | 44.98 | 32.9 | 24.83 | 19.33
x1 = 0.8728 | 1055.11 | 1051.25 | 1047.41 | 1043.56 | 1039.73 | 55.45 | 39.57 | 29.31 | 22.6 | 17.88
x1 = 1 | 1053.63 | 1049.78 | 1045.94 | 1042.11 | 1038.28 | 47.82 | 34.94 | 26.36 | 20.5 | 16.28
